# Results taken from patent US20100267561A1, “HERBICIDAL PYRIDAZINONE DERIVATIVES” (priority 2007, published 2010).
# How the values were obtained:
# Assay type in all cases: in vivo
# [1] = test system: rice (Oryza sativa); experiment: Test B flooded paddy test plant response
# In short: (§1)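 Paddy-water application to 2-leaf plants in pots held under 3 cm of flooding; response is a 0–100 visual control rating against controls after 13 to 15 days, and a dash marks a missing result.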
# [2] = test system: ducksalad (Heteranthera limosa); experiment: Test B flooded paddy test plant response
# In short: as §1
# [3] = test system: giant foxtail (Setaria faberii); experiment: Test B pre-/postemergence plant response
# In short: (§2)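 Seeds were sown and sprayed preemergence, while plants at 2 to 18 cm (1- to 4-leaf stage) got postemergence sprays. Compounds were formulated in a non-phytotoxic solvent mixture with surfactant. After 13 to 15 days in a greenhouse, injury was rated visually against untreated controls, 0 (no effect) to 100 (complete control).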
# [4] = test system: woolly cupgrass (Eriochloa villosa); experiment: Test B pre-/postemergence plant response
# In short: as §2
# [5] = test system: common ragweed (Ambrosia elation); experiment: Test B pre-/postemergence plant response
# In short: as §2
# [6] = test system: eastern black (E.B.) nightshade (Solanum ptycanthum); experiment: Test B pre-/postemergence plant response; conditions: Preemergence
# In short: as §2
# [7] = test system: velvetleaf (Abutilon theophrasti); experiment: Test B pre-/postemergence plant response
# In short: as §2
# [8] = test system: pigweed (Amaranthus retroflexus); experiment: Test B pre-/postemergence plant response
# In short: as §2
# [9] = test system: common (oilseed) sunflower (Helianthus annuus); experiment: Test B pre-/postemergence plant response; conditions: Preemergence
# In short: as §2
# [10] = test system: johnsongrass (Sorghum halepense); experiment: Test B pre-/postemergence plant response
# In short: as §2
# [11] = test system: green foxtail (Setaria viridis); experiment: Test B pre-/postemergence plant response
# In short: as §2
# [12] = test system: goosegrass (Eleusine indica); experiment: Test B pre-/postemergence plant response
# In short: as §2
# [13] = test system: wild oat (Avena fatua); experiment: Test B pre-/postemergence plant response
# In short: as §2
# [14] = test system: large crabgrass (Digitaria sanguinalis); experiment: Test B pre-/postemergence plant response
# In short: as §2
# [15] = Flood (flooded paddy test), 62 g ai/ha, scale 0 to 100, 0 no effect, 100 complete control
# [16] = Flood (flooded paddy test), 125 g ai/ha, scale 0 to 100, 0 no effect, 100 complete control
# [17] = Flood (flooded paddy test), 250 g ai/ha, scale 0 to 100, 0 no effect, 100 complete control
# [18] = Flood, 31 g ai/ha, scale 0 to 100
# [19] = 8 g ai/ha, postemergence, 0-100 scale
# [20] = Postemergence, 16 g ai/ha, scale 0 to 100
# [21] = Postemergence, 31 g ai/ha, scale 0 to 100, 0 no effect, 100 complete control
# [22] = Postemergence, 62 g ai/ha, scale 0 to 100, 0 no effect, 100 complete control
# [23] = Preemergence, 16 g ai/ha, scale 0 to 100 (0 no effect, 100 complete control)
# [24] = Preemergence, 31 g ai/ha, 0 to 100 scale, 0 no effect, 100 complete control
# [25] = Preemergence, 62 g ai/ha, scale 0 to 100
# [26] = Preemergence, 8 g ai/ha, scale 0 to 100
# [27] = 16 g ai/ha, scale 0 to 100 (0 no effect, 100 complete control)
# [28] = 31 g ai/ha, 0 to 100 scale, 0 no effect, 100 complete control
# [29] = Preemergence, 16 g ai/ha, scale 0 to 100
# [30] = Preemergence, 31 g ai/ha, scale 0 to 100 (0 no effect, 100 complete control)
# [31] = 31 g ai/ha, scale 0 to 100 (0 no effect, 100 complete control)
compound,measurement,setting,value
COC(=O)Oc1cnn(C)c(=O)c1-n1nc(-c2ccc(Cl)cc2)cc1C [Compound 33],"Plant response rating, Rice",[1]; [15],65
same,"Plant response rating, Rice",[1]; [16],75
same,"Plant response rating, Rice",[1]; [17],80
same,"Plant response rating, Rice",[1]; [18],30
same,"Plant response rating, Ducksalad",[2]; [15],0
same,"Plant response rating, Ducksalad",[2]; [16],40
same,"Plant response rating, Ducksalad",[2]; [17],50
same,"Plant response rating, Ducksalad",[2]; [18],0
same,"Foxtail, Giant plant response rating",[3]; [19],100
same,"Plant response rating, Foxtail, Giant",[3]; [20],100
same,"Plant response rating, Foxtail, Giant",[3]; [21],100
same,"Plant response rating, Foxtail, Giant",[3]; [22],100
same,"Plant response rating, Foxtail, Giant",[3]; [23],100
same,"Plant response rating, Foxtail, Giant",[3]; [24],100
same,"Plant response rating, Foxtail, Giant",[3]; [25],100
same,"Foxtail, Giant plant response rating",[3]; [26],100
same,"Cupgrass, Woolly plant response rating",[4]; [19],98
same,"Plant response rating, Cupgrass, Woolly",[4]; [20],100
same,"Plant response rating, Cupgrass, Woolly",[4]; [21],100
same,"Plant response rating, Cupgrass, Woolly",[4]; [22],100
same,"Plant response rating, Cupgrass, Woolly",[4]; [23],90
same,"Plant response rating, Cupgrass, Woolly",[4]; [24],100
same,"Plant response rating, Cupgrass, Woolly",[4]; [25],100
same,"Cupgrass, Woolly plant response rating",[4]; [26],80
same,Ragweed plant response rating,[5]; [19],0
same,"Plant response rating, Ragweed",[5]; [20],0
same,"Plant response rating, Ragweed",[5]; [21],0
same,"Plant response rating, Ragweed",[5]; [22],0
same,"Plant response rating, Ragweed",[5]; [23],0
same,"Plant response rating, Ragweed",[5]; [24],0
same,"Plant response rating, Ragweed",[5]; [25],0
same,Ragweed plant response rating,[5]; [26],0
same,"Plant response rating, Nightshade, E. B.",[6]; [27],0
same,"Plant response rating, Nightshade, E. B.",[6]; [28],0
same,"Plant response rating, Nightshade, E. B.","[6]; 62 g ai/ha, scale 0 to 100",0
same,"Nightshade, E. B. plant response rating","[6]; 8 g ai/ha, scale 0 to 100",0
same,Velvetleaf plant response rating,[7]; [19],0
same,"Plant response rating, Velvetleaf",[7]; [20],0
same,"Plant response rating, Velvetleaf",[7]; [22],5
same,"Plant response rating, Velvetleaf",[7]; [23],0
same,"Plant response rating, Velvetleaf",[7]; [24],0
same,Velvetleaf plant response rating,[7]; [26],0
same,Pigweed plant response rating,[8]; [19],0
same,"Plant response rating, Pigweed",[8]; [20],0
same,"Plant response rating, Pigweed",[8]; [21],0
same,"Plant response rating, Pigweed",[8]; [22],0
same,"Plant response rating, Pigweed",[8]; [23],0
same,"Plant response rating, Pigweed",[8]; [24],0
same,"Plant response rating, Pigweed",[8]; [25],0
same,Pigweed plant response rating,[8]; [26],0
same,"Plant response rating, Sunflower",[9]; [27],0
same,"Plant response rating, Sunflower",[9]; [28],0
same,"Plant response rating, Sunflower","[9]; 62 g ai/ha, scale 0 to 100",0
same,Sunflower plant response rating,"[9]; 8 g ai/ha, scale 0 to 100",0
same,Johnsongrass plant response rating,[10]; [19],70
same,"Plant response rating, Johnsongrass",[10]; [20],70
same,"Plant response rating, Johnsongrass",[10]; [21],85
same,"Plant response rating, Johnsongrass",[10]; [22],90
same,"Plant response rating, Johnsongrass",[10]; [23],95
same,"Plant response rating, Johnsongrass",[10]; [24],98
same,"Plant response rating, Johnsongrass",[10]; [25],100
same,Johnsongrass plant response rating,[10]; [26],60
same,"Foxtail, Green plant response rating",[11]; [19],85
same,"Plant response rating, Foxtail, Green",[11]; [20],85
same,"Plant response rating, Foxtail, Green",[11]; [21],100
same,"Plant response rating, Foxtail, Green",[11]; [22],100
same,"Plant response rating, Foxtail, Green",[11]; [23],100
same,"Plant response rating, Foxtail, Green",[11]; [24],100
same,"Plant response rating, Foxtail, Green",[11]; [25],100
same,"Foxtail, Green plant response rating",[11]; [26],100
same,Goosegrass plant response rating,[12]; [19],50
same,"Plant response rating, Goosegrass",[12]; [20],70
same,"Plant response rating, Goosegrass",[12]; [21],90
same,"Plant response rating, Goosegrass",[12]; [22],100
same,"Plant response rating, Goosegrass",[12]; [23],98
same,"Plant response rating, Goosegrass",[12]; [24],98
same,"Plant response rating, Goosegrass",[12]; [25],98
same,Goosegrass plant response rating,[12]; [26],85
same,"Oat, Wild plant response rating",[13]; [19],90
same,"Plant response rating, Oat, Wild",[13]; [20],95
same,"Plant response rating, Oat, Wild",[13]; [21],95
same,"Plant response rating, Oat, Wild",[13]; [22],98
same,"Plant response rating, Oat, Wild",[13]; [23],80
same,"Plant response rating, Oat, Wild",[13]; [24],80
same,"Plant response rating, Oat, Wild",[13]; [25],90
same,"Oat, Wild plant response rating",[13]; [26],70
same,"Crabgrass, Large plant response rating",[14]; [19],70
same,"Plant response rating, Crabgrass, Large",[14]; [20],90
same,"Plant response rating, Crabgrass, Large",[14]; [21],90
same,"Plant response rating, Crabgrass, Large",[14]; [22],100
same,"Plant response rating, Crabgrass, Large",[14]; [23],95
same,"Plant response rating, Crabgrass, Large",[14]; [24],95
same,"Plant response rating, Crabgrass, Large",[14]; [25],98
same,"Crabgrass, Large plant response rating",[14]; [26],70
Cc1cc(-c2ccc(Cl)cc2)nn1-c1c(OS(=O)(=O)c2ccccc2[N+](=O)[O-])cnn(C)c1=O [Compound 51],"Plant response rating, Rice",[1]; [15],0
same,"Plant response rating, Rice",[1]; [16],0
same,"Plant response rating, Rice",[1]; [17],0
same,"Plant response rating, Rice",[1]; [18],0
same,"Plant response rating, Ducksalad",[2]; [15],0
same,"Plant response rating, Ducksalad",[2]; [16],0
same,"Plant response rating, Ducksalad",[2]; [17],0
same,"Plant response rating, Ducksalad",[2]; [18],0
same,"Plant response rating, Foxtail, Giant",[3]; [24],100
same,"Plant response rating, Foxtail, Giant",[3]; [25],100
same,"Foxtail, Giant plant response rating",[3]; [26],80
same,"Foxtail, Giant plant response rating",[3]; [29],100
same,"Plant response rating, Cupgrass, Woolly",[4]; [24],90
same,"Plant response rating, Cupgrass, Woolly",[4]; [25],100
same,"Cupgrass, Woolly plant response rating",[4]; [26],0
same,"Cupgrass, Woolly plant response rating",[4]; [29],80
same,"Plant response rating, Ragweed",[5]; [30],0
same,"Plant response rating, Ragweed",[5]; [25],0
same,Ragweed plant response rating,[5]; [26],0
same,Ragweed plant response rating,[5]; [29],0
same,"Plant response rating, Nightshade, E. B.",[6]; [31],0
same,"Plant response rating, Nightshade, E. B.","[6]; 62 g ai/ha, scale 0 to 100",0
same,"Plant response rating, Velvetleaf",[7]; [30],0
same,"Plant response rating, Velvetleaf","[7]; Preemergence, 62 g ai/ha, 0 to 100 scale, 0 no effect, 100 complete control",0
same,Velvetleaf plant response rating,[7]; [26],0
same,Velvetleaf plant response rating,[7]; [29],0
same,"Plant response rating, Pigweed",[8]; [30],0
same,"Plant response rating, Pigweed",[8]; [25],0
same,Pigweed plant response rating,[8]; [26],0
same,Pigweed plant response rating,[8]; [29],0
same,"Plant response rating, Sunflower",[9]; [31],0
same,"Plant response rating, Sunflower","[9]; 62 g ai/ha, scale 0 to 100",0
same,Sunflower plant response rating,"[9]; 8 g ai/ha, scale 0 to 100",0
same,Sunflower plant response rating,"[9]; 16 g ai/ha, scale 0 to 100",0
same,"Plant response rating, Johnsongrass",[10]; [24],70
same,"Plant response rating, Johnsongrass",[10]; [25],80
same,Johnsongrass plant response rating,[10]; [29],50
same,"Plant response rating, Foxtail, Green",[11]; [24],98
same,"Plant response rating, Foxtail, Green",[11]; [25],100
same,"Foxtail, Green plant response rating",[11]; [26],50
same,"Foxtail, Green plant response rating",[11]; [29],90
same,"Plant response rating, Goosegrass",[12]; [24],75
same,"Plant response rating, Goosegrass",[12]; [25],90
same,Goosegrass plant response rating,[12]; [26],0
same,Goosegrass plant response rating,[12]; [29],60
same,"Plant response rating, Oat, Wild",[13]; [30],80
same,"Plant response rating, Oat, Wild",[13]; [25],90
same,"Oat, Wild plant response rating",[13]; [26],0
same,"Oat, Wild plant response rating",[13]; [29],10
same,"Plant response rating, Crabgrass, Large",[14]; [24],75
same,"Plant response rating, Crabgrass, Large",[14]; [25],90
same,"Crabgrass, Large plant response rating",[14]; [26],0
same,"Crabgrass, Large plant response rating",[14]; [29],20
